Measurements taken from article PMC10169810, “Ligand-induced activation and G protein coupling of prostaglandin F2α receptor” (Nature Communications, 2023).
Where “and” joins values, the source holds several entries; their conditions need not be identical. Identical values can stand only once.

What was measured:
[1] = molecular target: T1, FP S33A (Homo sapiens, UniProt P43088, S33A); assay: IP-One accumulation assay, FP S33A mutant; type: cell-based; settings: S33 to alanine vs WT FP
T1 construct: Flag; expressed in transfected cells; host or cells: AD293 cells
Method: (§1) IP-One production was measured using the IP-One HTRF kit (Cisbio)[50]. Briefly, AD293 cells (Agilent) were grown to a density of 400,000–500,000 cells per mL and then […] with separate plasmids at a suitable concentration. The culture was collected by centrifugation 24 h after incubation at 37 °C in 5% CO2 with a Stimulation Buffer. The cell suspension was then dispensed in a white 384-well plate at a volume of 7 μl per well before adding 7 μl of ligands. The mixture was incubated for 1 h at 37 °C. IP-One-d2 and anti-IP-One Cryptate dissolved in Lysis Buffer (3 μl each) were subsequently added and incubated for 15-30 min at room temperature before measurement. Intracellular IP-One measurement was carried out with the IP-One HTRF kit and EnVision multi-plate reader (PerkinElmer) according to the manufacturer’s instructions. Data were normalized to the baseline response of the ligand. pEC50 Emin, and Emax for each curve were calculated by GraphPad Prism 8.0. ∆pEC50 equals pEC50 of agonists to specific Mutant minus pEC50 of agonists to WT. Data are presented as mean values ± SEM; n = 3 independent samples; n.s. no significant; *p < 0.05; **p < 0.01; ***p < 0.001.

[2] = molecular target: T2, FP Y92A (Homo sapiens, UniProt P43088, Y92A); assay: IP-One accumulation assay, FP Y92A mutant; type: cell-based; settings: Y92 mutant (alanine) vs WT FP
T2 construct: Flag; expressed in transfected cells; host or cells: AD293 cells
Method: as §1

[3] = molecular target: T3, FP M115A (Homo sapiens, UniProt P43088, M115A); assay: IP-One accumulation assay, FP M115A mutant; type: cell-based; settings: M115 to alanine vs WT FP
T3 construct: Flag; expressed in transfected cells; host or cells: AD293 cells
Method: as §1

[4] = molecular target: T4, FP S118A (Homo sapiens, UniProt P43088, S118A); assay: IP-One accumulation assay, FP S118A mutant; type: cell-based
T4 construct: Flag; expressed in transfected cells; host or cells: AD293 cells
Method: as §1

[5] = molecular target: T5, FP T184A (Homo sapiens, UniProt P43088, T184A); assay: IP-One accumulation assay, FP T184A mutant; type: cell-based; settings: T184 mutant (alanine) vs WT FP
T5 construct: Flag; expressed in transfected cells; host or cells: AD293 cells
Method: as §1

[6] = molecular target: T6, FP W185A (Homo sapiens, UniProt P43088, W185A); assay: IP-One accumulation assay, FP W185A mutant; type: cell-based; settings: W185A mutant vs WT FP; IP1 accumulation, AD293 cells; single values of n = 3 independent samples
T6 construct: Flag; expressed in transfected cells; host or cells: AD293 cells
Method: as §1

[7] = molecular target: T7, FP F205A (Homo sapiens, UniProt P43088, F205A); assay: IP-One accumulation assay, FP F205A mutant; type: cell-based; settings: F205A mutant vs WT FP; IP1 accumulation, AD293 cells; single values of n = 3 independent samples
T7 construct: Flag; expressed in transfected cells; host or cells: AD293 cells
Method: as §1

[8] = molecular target: T8, FP F265A (Homo sapiens, UniProt P43088, F265A); assay: IP-One accumulation assay, FP F265A mutant; type: cell-based; settings: F265A mutant vs WT FP; IP1 accumulation, AD293 cells; single values of n = 3 independent samples
T8 construct: Flag; expressed in transfected cells; host or cells: AD293 cells
Method: as §1

[9] = molecular target: T9, FP I290A (Homo sapiens, UniProt P43088, L290A); assay: IP-One accumulation assay, FP I290A mutant; type: cell-based; settings: I290A mutant vs WT FP; IP1 accumulation, AD293 cells; single values of n = 3 independent samples
T9 construct: Flag; expressed in transfected cells; host or cells: AD293 cells
Method: as §1

[10] = molecular target: T10, FP R291A (Homo sapiens, UniProt P43088, R291A); assay: IP-One accumulation assay, FP R291A mutant; type: cell-based; settings: R291 mutant (alanine) vs WT FP
T10 construct: Flag; expressed in transfected cells; host or cells: AD293 cells
Method: as §1

[11] = molecular target: T11, FP T294A (Homo sapiens, UniProt P43088, T294A); assay: IP-One accumulation assay, FP T294A mutant; type: cell-based
T11 construct: Flag; expressed in transfected cells; host or cells: AD293 cells
Method: as §1

[12] = molecular target: T12, FP Q297A (Homo sapiens, UniProt P43088, Q297A); assay: IP-One accumulation assay, FP Q297A mutant; type: cell-based; settings: Q297A mutant vs WT FP; IP1 accumulation, AD293 cells; single values of n = 3 independent samples
T12 construct: Flag; expressed in transfected cells; host or cells: AD293 cells
Method: as §1

[13] = molecular target: T13, FP I298A (Homo sapiens, UniProt P43088, I298A); assay: IP-One accumulation assay, FP I298A mutant; type: cell-based; settings: I298A mutant vs WT FP; IP1 accumulation, AD293 cells; single values of n = 3 independent samples
T13 construct: Flag; expressed in transfected cells; host or cells: AD293 cells
Method: as §1

[14] = molecular target: T14, FP S118F (Homo sapiens, UniProt P43088, S118F); assay: IP-One accumulation assay, FP S118F mutant; type: cell-based; settings: S118F mutant vs WT FP; IP1 accumulation, AD293 cells; single values of n = 3 independent samples
T14 construct: Flag; expressed in transfected cells; host or cells: AD293 cells
Method: as §1

[15] = molecular target: T15, FP S118N (Homo sapiens, UniProt P43088, S118N); assay: IP-One accumulation assay, FP S118N mutant; type: cell-based
T15 construct: Flag; expressed in transfected cells; host or cells: AD293 cells
Method: as §1

[16] = system: FP; design: method as in PMID 10785618; settings: cited from earlier work
[17] = system: EP1; design: method as in PMID 10785618; settings: cited from earlier work
[18] = system: EP3; design: method as in PMID 10785618; settings: cited from earlier work

T7 sequence (P43088 whole entry F205A): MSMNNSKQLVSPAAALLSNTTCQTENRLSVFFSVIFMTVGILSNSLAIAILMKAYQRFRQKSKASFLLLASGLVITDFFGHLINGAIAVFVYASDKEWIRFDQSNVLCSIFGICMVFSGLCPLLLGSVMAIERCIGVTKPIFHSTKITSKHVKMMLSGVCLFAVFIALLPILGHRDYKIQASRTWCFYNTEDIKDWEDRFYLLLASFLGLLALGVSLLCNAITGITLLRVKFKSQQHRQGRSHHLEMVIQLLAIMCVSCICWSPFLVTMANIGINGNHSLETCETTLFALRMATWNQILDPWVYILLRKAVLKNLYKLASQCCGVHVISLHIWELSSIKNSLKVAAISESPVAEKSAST
T9 sequence (P43088 whole entry L290A): as the sequence (P43088 whole entry F205A) above, with A205F, L290A counted along it
T14 sequence (P43088 whole entry S118F): as the sequence (P43088 whole entry F205A) above, with S118F, A205F counted along it
T11 sequence (P43088 whole entry T294A): as the sequence (P43088 whole entry F205A) above, with A205F, T294A counted along it
T15 sequence (P43088 whole entry S118N): as the sequence (P43088 whole entry F205A) above, with S118N, A205F counted along it
T4 sequence (P43088 whole entry S118A): as the sequence (P43088 whole entry F205A) above, with S118A, A205F counted along it
T6 sequence (P43088 whole entry W185A): as the sequence (P43088 whole entry F205A) above, with W185A, A205F counted along it
T12 sequence (P43088 whole entry Q297A): as the sequence (P43088 whole entry F205A) above, with A205F, Q297A counted along it
T8 sequence (P43088 whole entry F265A): as the sequence (P43088 whole entry F205A) above, with A205F, F265A counted along it
T13 sequence (P43088 whole entry I298A): as the sequence (P43088 whole entry F205A) above, with A205F, I298A counted along it
T2 sequence (P43088 whole entry Y92A): as the sequence (P43088 whole entry F205A) above, with Y92A, A205F counted along it
T3 sequence (P43088 whole entry M115A): as the sequence (P43088 whole entry F205A) above, with M115A, A205F counted along it
T1 sequence (P43088 whole entry S33A): as the sequence (P43088 whole entry F205A) above, with S33A, A205F counted along it
T5 sequence (P43088 whole entry T184A): as the sequence (P43088 whole entry F205A) above, with T184A, A205F counted along it
T10 sequence (P43088 whole entry R291A): as the sequence (P43088 whole entry F205A) above, with A205F, R291A counted along it

O=C(O)CCC/C=C\C[C@@H]1[C@@H](CC[C@@H](O)CCc2ccccc2)[C@H](O)C[C@@H]1O [LTPA, Latanoprost acid]
effect of mutation on agonist affinity / potency (in words) [1]: significantly decreased the potency | effect of mutation on agonist activity / potency (in words) [2]: significantly decreased the potency | effect of mutation on agonist potency (in words) [3]: significantly decreased the potency | ∆pEC50 (pEC50 of agonist to mutant minus pEC50 to WT) ([4]; S118A mutant vs WT FP, IP1 accumulation, AD293 cells, single values of n = 3 independent samples): -1.0 and -0.9 | effect of mutation on agonist potency (in words) ([4]; S118 to alanine vs WT FP): significantly reduced the potency | effect of mutation on agonist activity / potency (in words) [5]: significantly decreased the potency | ∆pEC50 (pEC50 of agonist to mutant minus pEC50 to WT) [6]: -2.9 and -2.7 | ∆pEC50 (pEC50 of agonist to mutant minus pEC50 to WT) [7]: -2.3 and -2.1 and -2.2 | ∆pEC50 (pEC50 of agonist to mutant minus pEC50 to WT) [8]: -2.5 and -2.2 | ∆pEC50 (pEC50 of agonist to mutant minus pEC50 to WT) [9]: -1.1 and -1.3 and -1.0 | effect of mutation on agonist activity / potency (in words) [10]: significantly decreased the potency | ∆pEC50 (pEC50 of agonist to mutant minus pEC50 to WT) ([11]; T294A mutant vs WT FP, IP1 accumulation, AD293 cells, single values of n = 3 independent samples): -2.0 and -1.8 and -1.9 | effect of mutation on agonist affinity / potency (in words) ([11]; T294 to alanine vs WT FP): significantly decreased the potency | ∆pEC50 (pEC50 of agonist to mutant minus pEC50 to WT) [12]: -1.5 and -1.4 | ∆pEC50 (pEC50 of agonist to mutant minus pEC50 to WT) [13]: -1.8 and -2.1 | ∆pEC50 (pEC50 of agonist to mutant minus pEC50 to WT) [14]: -1.0 and -0.9 and -0.8 | ∆pEC50 (pEC50 of agonist to mutant minus pEC50 to WT) ([15]; S118N mutant vs WT FP, IP1 accumulation, AD293 cells, single values of n = 3 independent samples): -1.0 and -1.1 and -1.2 | effect of mutation on agonist potency (in words) ([15]; S118 to asparagine vs WT FP): significantly reduced the potency | selectivity enhancement compared to PGF2α ([16]; FP versus EP1 and EP3): more than 100 times | EC50 ([16]; FP): 0.0036 µM | EC50 [17]: 6.9 µM | EC50 [18]: 17 µM
